In ChEMBL document CHEMBL1201862, “PubChem BioAssay data set” (2004):
Activity calls are given as the source filed them.

What was measured:
[1] = molecular target: Ephrin type-A receptor 4 (Mus musculus, UniProt Q03137); assay: inhibitors of EphA4 binding to KYL peptide, primary screen, biochemical, colorimetric, mouse EphA4 (AID 689); format: functional
[2] = molecular target: T1, Cytochrome P450 1A2 (Homo sapiens, UniProt P05177);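 note: PubChem cytochrome P450 panel assay, CYP1A2 panel member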
T1 sequence (P05177 whole entry): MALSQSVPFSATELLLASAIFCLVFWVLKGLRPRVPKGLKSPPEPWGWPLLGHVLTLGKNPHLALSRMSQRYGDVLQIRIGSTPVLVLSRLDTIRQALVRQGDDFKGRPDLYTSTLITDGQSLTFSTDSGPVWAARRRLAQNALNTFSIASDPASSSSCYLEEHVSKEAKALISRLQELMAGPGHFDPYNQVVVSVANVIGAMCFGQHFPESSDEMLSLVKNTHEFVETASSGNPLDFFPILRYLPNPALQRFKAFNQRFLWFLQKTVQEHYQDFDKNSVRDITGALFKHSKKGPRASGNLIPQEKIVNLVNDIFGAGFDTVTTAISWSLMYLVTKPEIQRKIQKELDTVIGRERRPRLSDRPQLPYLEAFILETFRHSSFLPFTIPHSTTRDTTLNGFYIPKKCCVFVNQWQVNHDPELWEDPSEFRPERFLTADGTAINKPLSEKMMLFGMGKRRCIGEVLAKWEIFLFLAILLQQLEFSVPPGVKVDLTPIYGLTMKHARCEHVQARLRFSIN

[3] = molecular target: T2, Microphthalmia-associated transcription factor (Homo sapiens, UniProt O75030); assay: TRPM1 promoter luciferase signal decrease, dose response, MITF inhibitor project, cell-based, SK-MEL-5, cherry-picked, set 3 (AID 493073); format: functional
T2 sequence (O75030 whole entry): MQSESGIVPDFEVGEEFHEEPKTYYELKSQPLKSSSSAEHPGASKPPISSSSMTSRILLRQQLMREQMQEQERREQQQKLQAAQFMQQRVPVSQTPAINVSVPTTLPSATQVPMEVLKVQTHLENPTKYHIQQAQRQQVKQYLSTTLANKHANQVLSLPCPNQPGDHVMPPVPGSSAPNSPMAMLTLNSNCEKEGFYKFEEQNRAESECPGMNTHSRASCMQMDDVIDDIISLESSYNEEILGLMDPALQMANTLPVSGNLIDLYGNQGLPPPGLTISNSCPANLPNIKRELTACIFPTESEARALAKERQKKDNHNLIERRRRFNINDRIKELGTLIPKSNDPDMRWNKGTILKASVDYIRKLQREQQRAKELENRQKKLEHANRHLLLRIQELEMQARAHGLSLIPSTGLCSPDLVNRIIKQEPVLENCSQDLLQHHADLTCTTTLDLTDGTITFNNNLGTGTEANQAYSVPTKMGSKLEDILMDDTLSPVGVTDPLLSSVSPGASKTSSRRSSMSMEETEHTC

[4] = Luminescent dose response cell-based high throughput screening assay for inhibitors of the Janus kinase 2 mutant JAK2V617F. [Related pubchem assays: 1446 (Primary screen.), 1521 (Confirmation assay.), 1486 (Counter screen.)]; format: functional
[5] = system: BJ; assay: cells; format: functional, cell-based; details: Homo sapiens
[6] = non-specific cell cytotoxicity, dose response, cytotoxicity control for PAX8 inhibitor project, plate reader, dry powder samples (AID 743021); format: functional, cell-based
[7] = system: BJ; assay: cytotoxicity toward Ras-transformed BJeLR fibroblasts, dose response, cell-based, alamar blue fluorescence, cherrypicked samples (AID 2631); format: functional; details: Homo sapiens;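 note: confirmatory dose-response assay in RAS-dependent BJ fibroblasts engineered with TERT, LT and ST, with cytotoxicity read by fluorescence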
[8] = molecular target: T3, Replicative DNA helicase DnaB (Mycobacterium tuberculosis, UniProt P9WMR3); assay: DnaB intein splicing inhibitors, dose response, biochemical, cell-free fluorescence (AID 449749); format: functional
T3 sequence (P9WMR3 whole entry): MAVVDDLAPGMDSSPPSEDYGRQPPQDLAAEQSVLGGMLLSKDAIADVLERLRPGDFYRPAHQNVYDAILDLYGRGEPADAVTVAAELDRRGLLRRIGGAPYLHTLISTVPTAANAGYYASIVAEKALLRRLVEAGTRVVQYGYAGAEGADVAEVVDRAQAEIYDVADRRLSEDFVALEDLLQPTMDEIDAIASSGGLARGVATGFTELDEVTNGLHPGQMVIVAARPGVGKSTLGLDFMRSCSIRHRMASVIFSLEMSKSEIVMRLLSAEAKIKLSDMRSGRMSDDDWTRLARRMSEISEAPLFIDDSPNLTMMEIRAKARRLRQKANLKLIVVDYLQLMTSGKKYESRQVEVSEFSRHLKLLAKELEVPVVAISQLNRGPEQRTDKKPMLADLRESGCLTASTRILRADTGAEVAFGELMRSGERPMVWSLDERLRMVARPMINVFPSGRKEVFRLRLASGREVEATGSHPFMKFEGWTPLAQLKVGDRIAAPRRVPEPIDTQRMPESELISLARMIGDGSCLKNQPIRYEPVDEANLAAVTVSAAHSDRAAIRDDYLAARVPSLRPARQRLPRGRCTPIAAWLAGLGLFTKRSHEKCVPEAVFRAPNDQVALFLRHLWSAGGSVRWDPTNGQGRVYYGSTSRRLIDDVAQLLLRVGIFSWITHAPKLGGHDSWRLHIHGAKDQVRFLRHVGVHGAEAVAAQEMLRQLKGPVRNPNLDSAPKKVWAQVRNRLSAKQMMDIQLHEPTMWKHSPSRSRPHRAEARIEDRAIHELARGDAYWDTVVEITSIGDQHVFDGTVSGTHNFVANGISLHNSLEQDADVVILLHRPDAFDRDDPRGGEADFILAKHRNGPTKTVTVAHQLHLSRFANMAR

[9] = cytotoxicity toward DRD oncogenic fibroblasts, dose response, cell-based, non-viral oncogenic, luminescence (AID 1934); format: functional; details: Homo sapiens
[10] = system: BJ; assay: cytotoxicity toward BJ-TERT-LT-ST fibroblasts, dose response, cell-based, RAS-independent, luminescence (AID 1935); format: functional; details: Homo sapiens;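 note: BJ fibroblasts immortalized with TERT plus LT and ST oncogenes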
[11] = molecular target: Paired box protein Pax-8 (Homo sapiens, UniProt Q06710); assay: inhibitors of PAX8-driven TPO luciferase reporter, dose response, RMG-I cells, cherry-pick (AID 687027); format: functional, cell-based;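 note: luciferase reporter driven by Pax8 target thyroperoxidase promoter measured by SteadyGlo luminescence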
[12] = molecular target: T4, Protein RecA (Mycobacterium tuberculosis, UniProt P9WHJ3); assay: Fluorescence Cell-Free Homogeneous Dose Retest to Identify Inhibitors of RecA-Intein Splicing Activity. [Related pubchem assays (depositor defined):AID2097, AID2223, AID489010, AID492950]; format: functional
T4 sequence (P9WHJ3 whole entry): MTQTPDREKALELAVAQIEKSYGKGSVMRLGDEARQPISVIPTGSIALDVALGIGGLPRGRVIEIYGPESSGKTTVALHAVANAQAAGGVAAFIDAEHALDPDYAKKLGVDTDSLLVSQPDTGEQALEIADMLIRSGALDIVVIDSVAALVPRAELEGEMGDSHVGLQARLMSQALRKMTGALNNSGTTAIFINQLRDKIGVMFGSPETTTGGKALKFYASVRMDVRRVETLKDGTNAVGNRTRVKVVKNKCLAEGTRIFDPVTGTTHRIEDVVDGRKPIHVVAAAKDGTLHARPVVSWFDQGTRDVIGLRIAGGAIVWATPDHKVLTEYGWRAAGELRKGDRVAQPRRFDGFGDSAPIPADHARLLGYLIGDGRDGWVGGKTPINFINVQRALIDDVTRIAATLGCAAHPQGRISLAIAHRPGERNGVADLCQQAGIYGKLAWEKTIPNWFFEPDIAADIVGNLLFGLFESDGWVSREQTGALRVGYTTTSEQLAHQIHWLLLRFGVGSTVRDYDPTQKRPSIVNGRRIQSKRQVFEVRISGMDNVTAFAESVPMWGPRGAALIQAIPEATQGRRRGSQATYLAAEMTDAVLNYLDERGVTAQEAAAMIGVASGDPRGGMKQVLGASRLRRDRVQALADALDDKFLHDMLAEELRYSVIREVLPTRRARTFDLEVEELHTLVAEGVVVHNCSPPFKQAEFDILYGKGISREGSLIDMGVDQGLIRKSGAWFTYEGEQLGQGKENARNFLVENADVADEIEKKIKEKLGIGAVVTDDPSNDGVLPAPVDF

[13] = system: BJ; assay: cytotoxicity toward BJ-TERT fibroblasts, dose response, cell-based, RAS-independent, luminescence (AID 1933); format: functional; details: Homo sapiens

Sequence of Ephrin type-A receptor 4 (Q03137 whole entry): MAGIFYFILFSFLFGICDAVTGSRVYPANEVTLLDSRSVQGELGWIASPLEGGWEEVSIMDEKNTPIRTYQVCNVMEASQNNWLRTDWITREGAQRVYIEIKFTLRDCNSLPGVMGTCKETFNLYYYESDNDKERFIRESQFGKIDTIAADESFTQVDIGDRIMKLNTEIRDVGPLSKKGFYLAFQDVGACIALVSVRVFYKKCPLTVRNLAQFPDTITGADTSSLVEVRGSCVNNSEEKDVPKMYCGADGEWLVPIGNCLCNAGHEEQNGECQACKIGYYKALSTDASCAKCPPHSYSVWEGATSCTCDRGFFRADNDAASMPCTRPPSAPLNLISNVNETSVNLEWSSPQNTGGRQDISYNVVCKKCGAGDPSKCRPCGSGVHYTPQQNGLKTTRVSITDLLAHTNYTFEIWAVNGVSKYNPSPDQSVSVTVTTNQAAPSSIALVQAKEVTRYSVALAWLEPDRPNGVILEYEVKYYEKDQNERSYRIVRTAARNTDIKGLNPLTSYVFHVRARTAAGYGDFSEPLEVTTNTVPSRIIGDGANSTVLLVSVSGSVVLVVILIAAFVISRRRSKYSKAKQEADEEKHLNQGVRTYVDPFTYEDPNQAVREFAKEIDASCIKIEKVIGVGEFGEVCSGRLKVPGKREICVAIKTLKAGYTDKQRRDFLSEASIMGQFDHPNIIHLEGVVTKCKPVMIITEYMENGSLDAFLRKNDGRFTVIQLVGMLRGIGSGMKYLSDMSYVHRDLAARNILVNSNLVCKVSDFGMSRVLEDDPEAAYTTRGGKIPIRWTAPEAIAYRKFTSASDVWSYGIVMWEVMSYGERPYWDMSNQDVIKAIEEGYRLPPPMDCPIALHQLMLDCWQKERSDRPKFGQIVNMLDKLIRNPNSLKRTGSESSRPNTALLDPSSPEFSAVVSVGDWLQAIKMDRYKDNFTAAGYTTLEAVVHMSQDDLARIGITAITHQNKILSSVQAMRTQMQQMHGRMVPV
Sequence of Paired box protein Pax-8 (Q06710 whole entry): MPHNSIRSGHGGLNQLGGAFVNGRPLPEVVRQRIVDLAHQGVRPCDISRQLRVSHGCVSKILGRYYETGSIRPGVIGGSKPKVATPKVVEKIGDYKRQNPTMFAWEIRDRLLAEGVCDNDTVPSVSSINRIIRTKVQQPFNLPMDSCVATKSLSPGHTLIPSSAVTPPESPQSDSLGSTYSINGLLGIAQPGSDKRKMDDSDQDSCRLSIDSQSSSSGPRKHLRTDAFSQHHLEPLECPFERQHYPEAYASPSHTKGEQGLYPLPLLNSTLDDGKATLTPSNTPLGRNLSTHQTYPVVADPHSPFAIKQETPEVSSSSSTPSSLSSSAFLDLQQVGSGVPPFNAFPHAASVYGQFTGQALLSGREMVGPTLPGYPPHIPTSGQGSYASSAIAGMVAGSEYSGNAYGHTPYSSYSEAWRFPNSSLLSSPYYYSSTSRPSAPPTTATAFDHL

Row | Structure (SMILES) | IC50 [1] | AC50 [2] | AC50 [3] | IC50 [4] | EC50 [5] | AC50 [6] | EC50 [7] | AC50 [8] | EC50 [9] | EC50 [10] | AC50 [11] | EC50 [12] | EC50 [13]
1 | Brc1ccc(-c2nnc(-c3cccc(Br)c3)o2)cc1 | > 100 µM (not active) | 0.316 µM (inconclusive) |  |  |  |  |  |  |  |  |  |  | 
2 | COc1ccccc1N(C(=O)CCl)c1cn(C(C)=O)c2ccccc12 |  |  | 8.82 µM (active) | 1.2 µM (active) | 5.64 µM (active) | 3.66 µM (active) | 1.52 µM (active) | 12.8 µM (active) | 3.11 µM (active) | > 150 µM (inconclusive) | 1.56 µM (active) | 0.846 µM (active) | 5.21 µM (inconclusive)
